The source made the active and inactive calls.
What was measured:
[1] = inhibition of K1F phage lysis, E. coli UTI89, bacterial capsule biogenesis inhibitors, alamar blue (AID 488966); assay type: functional
[2] = HeLa cell cytotoxicity, dose response, cytotoxicity control for MgcRacGAP inhibitor project (AID 624300); assay type: functional
[3] = biological target: T1, Rac GTPase-activating protein 1 (Homo sapiens, UniProt Q9H0H5); test: MgcRacGAP GTPase-activating activity inhibitors, confirmation, biochemical, ADP Hunter fluorescence, primary and confirmatory (AID 624330); assay type: functional
T1 sequence (Q9H0H5 whole entry): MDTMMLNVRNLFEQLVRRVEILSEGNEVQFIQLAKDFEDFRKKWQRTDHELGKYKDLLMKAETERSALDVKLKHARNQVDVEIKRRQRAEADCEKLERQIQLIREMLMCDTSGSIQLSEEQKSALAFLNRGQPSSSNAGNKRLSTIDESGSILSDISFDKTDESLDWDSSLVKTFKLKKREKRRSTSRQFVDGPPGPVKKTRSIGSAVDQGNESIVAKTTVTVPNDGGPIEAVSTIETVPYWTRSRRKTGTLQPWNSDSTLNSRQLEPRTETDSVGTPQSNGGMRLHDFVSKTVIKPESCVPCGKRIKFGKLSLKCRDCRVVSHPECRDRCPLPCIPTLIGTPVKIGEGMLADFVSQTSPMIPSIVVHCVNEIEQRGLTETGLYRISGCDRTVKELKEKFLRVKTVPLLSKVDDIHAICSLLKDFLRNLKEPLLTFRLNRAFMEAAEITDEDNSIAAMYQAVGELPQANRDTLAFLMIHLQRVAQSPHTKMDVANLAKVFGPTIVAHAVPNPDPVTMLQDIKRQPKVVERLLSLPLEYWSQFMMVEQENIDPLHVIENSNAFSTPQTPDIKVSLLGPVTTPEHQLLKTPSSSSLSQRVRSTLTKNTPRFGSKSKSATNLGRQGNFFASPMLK

[4] = biological target: T2, DNA repair protein RAD52 homolog (Homo sapiens, UniProt P43351); assay type: functional, biochemical
T2 sequence (P43351 whole entry): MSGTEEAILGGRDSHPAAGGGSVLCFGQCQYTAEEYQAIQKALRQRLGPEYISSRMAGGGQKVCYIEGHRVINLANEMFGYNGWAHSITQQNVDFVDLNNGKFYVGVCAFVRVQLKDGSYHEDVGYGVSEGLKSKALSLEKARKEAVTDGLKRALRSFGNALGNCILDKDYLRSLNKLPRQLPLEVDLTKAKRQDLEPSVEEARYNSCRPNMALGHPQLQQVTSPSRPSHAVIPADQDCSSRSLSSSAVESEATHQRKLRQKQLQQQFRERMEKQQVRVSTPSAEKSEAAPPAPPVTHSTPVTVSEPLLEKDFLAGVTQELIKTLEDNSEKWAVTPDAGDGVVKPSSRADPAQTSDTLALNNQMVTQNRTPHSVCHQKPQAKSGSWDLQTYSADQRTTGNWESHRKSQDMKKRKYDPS

[5] = biological target: Eukaryotic translation initiation factor 4H (Homo sapiens, UniProt Q15056); test: eIF4H inhibition in translation initiation, SAR follow-up (AID 435011); assay type: functional
[6] = biological target: Polyadenylate-binding protein 1 (Homo sapiens, UniProt P11940); test: PABP inhibition in translation initiation, SAR follow-up (AID 435018); assay type: functional
Polyadenylate-binding protein 1, sequence (P11940 whole entry): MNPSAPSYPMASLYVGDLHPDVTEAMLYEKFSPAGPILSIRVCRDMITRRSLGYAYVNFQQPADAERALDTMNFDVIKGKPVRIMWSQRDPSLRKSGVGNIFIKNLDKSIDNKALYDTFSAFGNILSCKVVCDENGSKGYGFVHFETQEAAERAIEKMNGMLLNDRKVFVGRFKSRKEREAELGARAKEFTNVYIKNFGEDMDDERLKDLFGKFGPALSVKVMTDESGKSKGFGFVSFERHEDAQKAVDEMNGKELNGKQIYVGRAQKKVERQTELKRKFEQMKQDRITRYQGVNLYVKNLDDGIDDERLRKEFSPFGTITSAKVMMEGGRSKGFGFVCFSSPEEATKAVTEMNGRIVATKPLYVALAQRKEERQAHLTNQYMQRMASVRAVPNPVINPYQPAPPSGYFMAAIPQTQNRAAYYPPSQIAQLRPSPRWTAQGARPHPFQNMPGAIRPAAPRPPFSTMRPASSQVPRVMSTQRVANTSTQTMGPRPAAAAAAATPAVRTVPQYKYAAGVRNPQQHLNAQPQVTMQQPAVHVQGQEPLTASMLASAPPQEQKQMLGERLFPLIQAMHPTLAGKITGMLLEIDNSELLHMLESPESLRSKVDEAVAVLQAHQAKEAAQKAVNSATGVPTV

[7] = biological target: T3, Tyrosine-protein phosphatase non-receptor type 7 (Homo sapiens, UniProt P35236); assay type: functional
T3 sequence (P35236 whole entry): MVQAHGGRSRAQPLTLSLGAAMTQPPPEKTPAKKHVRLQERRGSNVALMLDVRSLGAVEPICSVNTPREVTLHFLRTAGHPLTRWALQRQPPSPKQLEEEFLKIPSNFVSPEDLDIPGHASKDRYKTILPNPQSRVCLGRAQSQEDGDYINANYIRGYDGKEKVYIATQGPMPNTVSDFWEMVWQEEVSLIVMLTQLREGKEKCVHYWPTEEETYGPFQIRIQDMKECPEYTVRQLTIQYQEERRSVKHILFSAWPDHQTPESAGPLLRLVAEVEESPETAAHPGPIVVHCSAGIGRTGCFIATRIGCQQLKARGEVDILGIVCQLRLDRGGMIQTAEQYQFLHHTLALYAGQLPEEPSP

[8] = biological target: Glyceraldehyde-3-phosphate dehydrogenase (Homo sapiens, UniProt P04406)
[9] = biological target: T4, Dual specificity protein phosphatase 6 (Rattus norvegicus, UniProt Q64346)
T4 sequence (Q64346 whole entry): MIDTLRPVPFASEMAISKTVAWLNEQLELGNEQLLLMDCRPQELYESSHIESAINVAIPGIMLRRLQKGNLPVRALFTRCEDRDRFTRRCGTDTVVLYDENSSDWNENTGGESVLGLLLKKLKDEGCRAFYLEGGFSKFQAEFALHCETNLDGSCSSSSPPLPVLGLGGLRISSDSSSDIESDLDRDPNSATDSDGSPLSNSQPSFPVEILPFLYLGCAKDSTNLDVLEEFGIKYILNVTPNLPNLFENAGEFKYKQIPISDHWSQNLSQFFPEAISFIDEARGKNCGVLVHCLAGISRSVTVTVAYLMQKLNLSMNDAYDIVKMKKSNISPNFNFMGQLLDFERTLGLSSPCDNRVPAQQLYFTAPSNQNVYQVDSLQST

[10] = biological target: T5, Dual specificity protein phosphatase 3 (Homo sapiens, UniProt P51452); test: SAR VHR1 Fluorescent Assay for In Vitro dose response studies. [Related pubchem assays (depositor defined):AID1654, AID1661, AID1878, AID1992, AID2004, AID2070, AID2085]; assay type: functional
T5 sequence (P51452 whole entry): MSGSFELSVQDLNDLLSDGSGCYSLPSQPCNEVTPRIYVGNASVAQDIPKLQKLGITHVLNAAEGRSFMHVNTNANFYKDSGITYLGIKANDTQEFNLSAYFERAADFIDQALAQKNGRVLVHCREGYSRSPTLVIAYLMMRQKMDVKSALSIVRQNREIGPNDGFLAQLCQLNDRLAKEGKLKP

[11] = biological target: T5, Dual specificity protein phosphatase 3; test: MOA VHR1 Fluorescent secondary assay for identification of redox-state modulating compounds. [Related pubchem assays (depositor defined):AID1654, AID1661, AID1878, AID1957]
[12] = biological target: T3, Tyrosine-protein phosphatase non-receptor type 7; test: redox-dependent HePTP inhibition, mechanism study, biochemical, fluorescence (AID 2068); assay type: functional
[13] = biological target: T4, Dual specificity protein phosphatase 6; assay type: functional
[14] = biological target: Envelope glycoprotein gp160 (Human immunodeficiency virus 1, UniProt Q6QLK5); test: inhibitors of HIV fusion peptide binding, primary screen, biochemical, uHTS, fluorescence dequenching (AID 1986)
Envelope glycoprotein gp160, sequence (Q6QLK5 whole entry, the tested form may be a part): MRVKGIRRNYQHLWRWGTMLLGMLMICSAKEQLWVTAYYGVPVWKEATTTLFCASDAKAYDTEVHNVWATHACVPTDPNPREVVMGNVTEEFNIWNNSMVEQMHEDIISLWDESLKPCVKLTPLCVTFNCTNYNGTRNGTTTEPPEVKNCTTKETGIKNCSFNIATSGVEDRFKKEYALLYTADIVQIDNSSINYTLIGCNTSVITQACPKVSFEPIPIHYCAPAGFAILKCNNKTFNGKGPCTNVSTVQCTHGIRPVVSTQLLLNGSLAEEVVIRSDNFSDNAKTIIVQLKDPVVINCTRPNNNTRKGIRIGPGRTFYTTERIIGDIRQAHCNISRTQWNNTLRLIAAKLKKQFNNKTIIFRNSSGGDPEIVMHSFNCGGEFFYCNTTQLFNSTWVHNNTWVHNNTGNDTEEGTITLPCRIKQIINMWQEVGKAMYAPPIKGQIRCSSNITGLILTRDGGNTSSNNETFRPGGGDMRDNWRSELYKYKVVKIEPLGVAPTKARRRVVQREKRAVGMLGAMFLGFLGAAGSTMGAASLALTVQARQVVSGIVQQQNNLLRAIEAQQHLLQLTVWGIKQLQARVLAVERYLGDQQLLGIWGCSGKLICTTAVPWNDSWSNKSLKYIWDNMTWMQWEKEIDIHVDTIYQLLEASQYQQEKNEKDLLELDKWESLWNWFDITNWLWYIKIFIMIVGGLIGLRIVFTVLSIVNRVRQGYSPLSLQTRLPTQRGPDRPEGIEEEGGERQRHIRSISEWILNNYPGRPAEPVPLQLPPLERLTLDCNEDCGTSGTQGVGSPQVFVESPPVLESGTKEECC

[15] = M. tuberculosis H37Rv growth inhibitors, H37Rv strain (AID 1626); assay type: functional
[16] = Luminescence Cell-Based Dose Retest to Confirm Inhibitors of Cancer Stem Cells. [Related pubchem assays (depositor defined):AID2717, AID2721]; assay type: functional; conditions: Homo sapiens
INS1 = test: beta cell apoptosis inhibitors, cytokine rescue, dose response, luminescence, retest (AID 449756); assay type: functional, cell-based; conditions: Rattus norvegicus;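 further: cell death triggered by IL-1 beta plus TNF-alpha plus IFN-gamma mixture; protective hits raise ATP signal compared with cytokine alone wells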
[17] = biological target: Cystic fibrosis transmembrane conductance regulator/Golgi-associated PDZ and coiled-coil motif-containing protein (Homo sapiens, UniProt P13569+Q9HD26); test: CAL PDZ peptide-binding inhibitors, dose response, biochemical, fluorescence polarization, Cerulean-tagged CAL PDZ, cherry-picks (AID 504773)
Cystic fibrosis transmembrane conductance regulator/Golgi-associated PDZ and coiled-coil motif-containing protein, sequence (P13569 whole entry, other chains not shown): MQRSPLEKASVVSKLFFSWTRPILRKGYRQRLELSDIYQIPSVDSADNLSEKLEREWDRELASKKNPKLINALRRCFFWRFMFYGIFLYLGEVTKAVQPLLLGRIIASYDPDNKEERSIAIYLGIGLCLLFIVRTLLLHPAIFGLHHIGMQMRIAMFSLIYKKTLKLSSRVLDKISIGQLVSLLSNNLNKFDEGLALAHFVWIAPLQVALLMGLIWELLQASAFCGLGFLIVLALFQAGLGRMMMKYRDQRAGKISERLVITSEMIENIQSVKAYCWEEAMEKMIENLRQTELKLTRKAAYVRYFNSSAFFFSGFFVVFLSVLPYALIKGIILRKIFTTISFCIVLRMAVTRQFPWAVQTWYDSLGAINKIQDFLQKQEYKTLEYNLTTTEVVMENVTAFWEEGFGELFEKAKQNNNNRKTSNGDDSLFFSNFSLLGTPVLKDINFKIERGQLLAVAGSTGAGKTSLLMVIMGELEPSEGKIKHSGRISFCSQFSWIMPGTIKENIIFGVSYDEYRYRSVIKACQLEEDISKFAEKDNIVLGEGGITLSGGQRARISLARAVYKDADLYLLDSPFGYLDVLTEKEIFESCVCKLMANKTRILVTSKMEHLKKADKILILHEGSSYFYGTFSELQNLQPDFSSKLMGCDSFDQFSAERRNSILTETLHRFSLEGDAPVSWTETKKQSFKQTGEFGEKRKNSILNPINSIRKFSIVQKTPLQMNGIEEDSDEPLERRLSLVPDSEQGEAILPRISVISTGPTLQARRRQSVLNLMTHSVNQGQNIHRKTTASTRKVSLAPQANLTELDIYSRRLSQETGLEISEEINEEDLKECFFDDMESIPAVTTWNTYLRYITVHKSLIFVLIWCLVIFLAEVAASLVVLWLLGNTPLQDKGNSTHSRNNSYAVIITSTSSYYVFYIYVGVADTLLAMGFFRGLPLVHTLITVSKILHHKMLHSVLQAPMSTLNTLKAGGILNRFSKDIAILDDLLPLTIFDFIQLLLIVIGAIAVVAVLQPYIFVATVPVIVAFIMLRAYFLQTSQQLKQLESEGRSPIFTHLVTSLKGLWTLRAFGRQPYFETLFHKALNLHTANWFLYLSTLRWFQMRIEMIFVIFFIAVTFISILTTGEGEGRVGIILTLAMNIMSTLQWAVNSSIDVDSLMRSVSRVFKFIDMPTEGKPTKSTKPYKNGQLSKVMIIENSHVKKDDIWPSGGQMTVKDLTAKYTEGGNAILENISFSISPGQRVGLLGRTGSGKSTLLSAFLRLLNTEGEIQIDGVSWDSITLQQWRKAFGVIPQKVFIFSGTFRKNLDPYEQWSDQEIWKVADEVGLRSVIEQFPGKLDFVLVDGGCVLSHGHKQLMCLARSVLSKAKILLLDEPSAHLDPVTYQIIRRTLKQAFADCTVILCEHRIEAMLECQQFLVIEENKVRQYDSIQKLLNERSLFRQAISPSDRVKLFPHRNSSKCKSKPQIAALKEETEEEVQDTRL

HeLa = test: HeLa cell cytotoxicity, dose response, cytotoxicity control, 24 h, cherry-picked samples (AID 504726); assay type: functional, cell-based; conditions: Homo sapiens;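 further: potency for cytotoxicity as loss of luminescence signal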
[18] = biological target: Intestinal-type alkaline phosphatase (Homo sapiens, UniProt P09923); test: Dose Response confirmation of uHTS hits from a small molecule inhibitors of human intestinal alkaline phosphatase via a luminescent assay. [Related pubchem assays (depositor defined):AID2544, AID2574]; assay type: functional
Intestinal-type alkaline phosphatase, sequence (P09923 whole entry): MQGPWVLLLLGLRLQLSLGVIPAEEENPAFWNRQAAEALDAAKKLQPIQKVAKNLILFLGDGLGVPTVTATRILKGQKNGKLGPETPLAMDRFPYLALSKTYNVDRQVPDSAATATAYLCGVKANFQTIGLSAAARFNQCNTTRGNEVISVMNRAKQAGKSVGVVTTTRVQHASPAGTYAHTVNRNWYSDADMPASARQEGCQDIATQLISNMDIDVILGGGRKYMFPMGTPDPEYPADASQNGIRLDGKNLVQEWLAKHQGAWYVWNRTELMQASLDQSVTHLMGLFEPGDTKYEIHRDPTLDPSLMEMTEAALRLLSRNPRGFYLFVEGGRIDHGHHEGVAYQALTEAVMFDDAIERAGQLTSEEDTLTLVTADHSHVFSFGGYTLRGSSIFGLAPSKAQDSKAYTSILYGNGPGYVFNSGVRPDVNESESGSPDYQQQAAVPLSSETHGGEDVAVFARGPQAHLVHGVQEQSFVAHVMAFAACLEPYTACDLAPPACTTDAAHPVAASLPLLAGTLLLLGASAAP

ORF 73 = ORF 73 (Human herpesvirus 8, UniProt O40947); test: inhibitors of C-LANA binding to LBS DNA, dose response, biochemical, fluorescence polarization, cherry-picked samples (AID 504725); design: species or system Human gammaherpesvirus 8;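 further: fluorescence polarization of a labeled DNA duplex reporting LANA DNA binding; potency is for inhibitors that block LANA binding to the DNA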
ORF 73, sequence (O40947 whole entry): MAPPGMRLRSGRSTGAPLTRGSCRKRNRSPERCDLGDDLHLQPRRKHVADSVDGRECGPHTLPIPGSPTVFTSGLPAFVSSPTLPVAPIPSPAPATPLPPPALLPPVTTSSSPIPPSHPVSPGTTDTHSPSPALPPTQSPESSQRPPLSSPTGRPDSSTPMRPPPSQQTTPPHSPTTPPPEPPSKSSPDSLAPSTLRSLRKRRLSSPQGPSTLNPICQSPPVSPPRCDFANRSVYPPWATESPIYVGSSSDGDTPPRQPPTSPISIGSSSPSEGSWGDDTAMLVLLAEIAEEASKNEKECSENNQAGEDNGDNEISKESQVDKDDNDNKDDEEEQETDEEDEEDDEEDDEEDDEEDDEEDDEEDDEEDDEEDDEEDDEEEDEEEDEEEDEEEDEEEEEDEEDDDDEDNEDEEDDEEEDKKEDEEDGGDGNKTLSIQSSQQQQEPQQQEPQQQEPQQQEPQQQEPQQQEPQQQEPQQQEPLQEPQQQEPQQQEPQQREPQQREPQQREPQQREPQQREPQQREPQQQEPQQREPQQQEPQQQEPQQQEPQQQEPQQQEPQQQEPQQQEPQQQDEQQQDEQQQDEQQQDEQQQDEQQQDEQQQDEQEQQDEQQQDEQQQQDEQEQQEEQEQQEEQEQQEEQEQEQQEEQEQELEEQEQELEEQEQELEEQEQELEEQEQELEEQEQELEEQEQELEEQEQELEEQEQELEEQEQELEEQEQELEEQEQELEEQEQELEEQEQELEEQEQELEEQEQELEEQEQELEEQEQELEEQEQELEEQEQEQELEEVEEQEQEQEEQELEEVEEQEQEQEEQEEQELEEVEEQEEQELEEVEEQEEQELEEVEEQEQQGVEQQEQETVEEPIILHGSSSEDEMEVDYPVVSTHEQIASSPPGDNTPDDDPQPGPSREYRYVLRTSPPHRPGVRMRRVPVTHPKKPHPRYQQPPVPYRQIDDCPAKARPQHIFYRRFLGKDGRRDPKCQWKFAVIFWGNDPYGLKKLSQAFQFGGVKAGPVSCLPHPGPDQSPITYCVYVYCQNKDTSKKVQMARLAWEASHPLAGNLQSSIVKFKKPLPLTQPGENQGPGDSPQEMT

Insulin-degrading enzyme [19] = biological target: T6, Insulin-degrading enzyme (Homo sapiens, UniProt P14735); test: activators of recombinant IDE enzyme, dose response, counter-screen for IDE activator project, biochemical, fluorescence polarization (AID 588681)
T6 sequence (P14735 whole entry): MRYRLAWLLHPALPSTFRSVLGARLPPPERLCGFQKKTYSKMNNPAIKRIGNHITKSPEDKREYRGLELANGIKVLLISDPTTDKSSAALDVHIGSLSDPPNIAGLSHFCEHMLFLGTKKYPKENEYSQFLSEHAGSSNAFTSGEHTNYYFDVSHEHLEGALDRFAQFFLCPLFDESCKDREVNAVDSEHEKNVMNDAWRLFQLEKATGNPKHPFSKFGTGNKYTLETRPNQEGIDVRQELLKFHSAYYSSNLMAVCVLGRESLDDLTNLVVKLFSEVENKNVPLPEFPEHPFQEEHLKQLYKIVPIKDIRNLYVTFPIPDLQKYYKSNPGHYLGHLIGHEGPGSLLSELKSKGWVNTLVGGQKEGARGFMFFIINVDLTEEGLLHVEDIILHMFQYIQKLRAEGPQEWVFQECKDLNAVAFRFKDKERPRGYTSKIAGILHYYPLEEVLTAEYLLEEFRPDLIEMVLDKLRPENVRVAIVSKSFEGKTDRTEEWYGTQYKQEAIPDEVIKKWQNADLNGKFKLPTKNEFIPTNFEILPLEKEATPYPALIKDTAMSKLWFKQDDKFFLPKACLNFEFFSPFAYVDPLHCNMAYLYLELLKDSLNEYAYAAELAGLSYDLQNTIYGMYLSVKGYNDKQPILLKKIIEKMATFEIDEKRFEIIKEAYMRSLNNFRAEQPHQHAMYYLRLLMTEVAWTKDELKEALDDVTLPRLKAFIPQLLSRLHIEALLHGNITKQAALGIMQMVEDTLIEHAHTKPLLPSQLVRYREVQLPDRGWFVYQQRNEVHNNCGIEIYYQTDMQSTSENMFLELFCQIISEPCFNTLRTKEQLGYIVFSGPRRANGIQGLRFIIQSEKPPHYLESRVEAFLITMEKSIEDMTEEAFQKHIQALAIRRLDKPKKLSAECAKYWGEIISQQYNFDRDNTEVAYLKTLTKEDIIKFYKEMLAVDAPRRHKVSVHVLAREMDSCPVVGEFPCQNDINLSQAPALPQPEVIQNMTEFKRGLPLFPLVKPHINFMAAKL

Insulin-degrading enzyme [20] = biological target: T6, Insulin-degrading enzyme; test: activators of endogenous IDE in HEK cells, dose response, cell-based, fluorescence polarization (AID 588439); assay type: functional
HEK293 [21] = test: HEK cell cytotoxicity by LDH release, dose response, cytotoxicity control for IDE activator project, fluorescence, HEK cells (AID 588440); assay type: functional, cell-based; conditions: Homo sapiens;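 further: cytotoxicity by LDH release measuring loss of membrane integrity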
HEK293 [22] = test: optical interference in Abeta FP readout, dose response, artefact control for IDE activator project, biochemical, fluorescence polarization (AID 588442); assay type: functional, cell-based; conditions: Homo sapiens
Paired box protein Pax-8 = Paired box protein Pax-8 (Homo sapiens, UniProt Q06710); test: inhibitors of PAX8-driven TPO luciferase reporter, dose response, RMG-I cells, cherry-pick (AID 687027); assay type: functional, cell-based;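 further: luciferase reporter driven by Pax8 target thyroperoxidase promoter measured by SteadyGlo luminescence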
[23] = THP-1 cell cytotoxicity, dose response, cytotoxicity control for Vif-APOBEC3G degradation inhibitor project, THP-1 cells (AID 1117359); assay type: functional; conditions: Human immunodeficiency virus 1, THP-1
[24] = biological target: Glutathione-S-transferase (Schistosoma japonicum, UniProt Q26513); test: biotin-GST/anti-GST TR-FRET signal inhibitors, dose response, artefact control for Vif-APOBEC3G degradation inhibitor project, biochemical (AID 1117362); assay type: functional
Glutathione-S-transferase, sequence (Q26513 whole entry): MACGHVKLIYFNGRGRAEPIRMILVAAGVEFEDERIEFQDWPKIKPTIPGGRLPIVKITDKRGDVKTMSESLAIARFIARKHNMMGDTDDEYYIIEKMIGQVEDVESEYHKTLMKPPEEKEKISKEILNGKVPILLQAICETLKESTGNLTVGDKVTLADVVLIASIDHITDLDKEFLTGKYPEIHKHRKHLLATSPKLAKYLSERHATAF

Structure (SMILES): O=C1c2cccc(NCCNCCO)c2C(=O)c2cccc(NCCNCCO)c21
- IC50 [1]: > 300 µM (active)
- CC50 [2]: 23.1 µM (active)
- IC50 [3]: 41.3 µM (active)
- AC50 [4]: < 0.15 µM (active)

Structure (SMILES): COc1cc(C=NNC(=O)c2ccccc2O)ccc1OCC(=O)Nc1ccccc1
- IC50 [5]: 2.41 µM (active)
- IC50 [6]: 52.6 µM (active)

Structure (SMILES): Cc1cc(C)c2nc3s/c(=C\c4ccc(-c5ccccc5C(=O)O)o4)c(=O)n3c2c1
- IC50 [7]: 2.4 µM (active)
- IC50 [8]: 87.1 µM (active)
- IC50 [9]: 13.8 µM (active)
- IC50 [10]: 5.82 µM (active)
- IC50 [11]: 0.68 µM (active)
- IC50 [12]: 0.805 µM (active)
- IC50 [13]: 15.6 µM (active)

Structure (SMILES): O=S(=O)(Nc1nc2ccccc2nc1Nc1ccc(N2CCOCC2)cc1)c1cc(Cl)ccc1Cl
- IC50 [14]: > 99 µM (inactive)
- IC50 [15]: > 100 µM (active)
- AC50 [16]: 4.38 µM (active)
- AC50 (INS1): 5.91 µM (active)

Structure (SMILES): COC(=O)c1ccccc1-c1c2ccc(=N)cc-2oc2cc(N)ccc12
- AC50 [17]: 3.6 µM (active)
- AC50 (HeLa): 34 µM (active)
- IC50 [18]: > 100 µM (inactive)
- AC50 (ORF 73): < 0.015 µM (active)
- EC50 (Insulin-degrading enzyme [19]): > 54.7 µM (inactive)
- EC50 (Insulin-degrading enzyme [20]): > 54.7 µM (inactive)
- IC50 (HEK293 [21]): > 89.2 µM (inactive)
- EC50 (HEK293 [22]): 0.045 µM (active)
- AC50 (Paired box protein Pax-8): 1.41 µM (active)
- CC50 [23]: 5.49 µM (active)
- IC50 [24]: 9.91 µM (active)

From ChEMBL document CHEMBL1201862, “PubChem BioAssay data set” (2004)
